From ChEMBL document CHEMBL3045354, “Synthesis, molecular modeling, and biological evaluation of 1,2,4-triazole derivatives containing pyridine as potential anti-tumor agents” (Med Chem Res, 2013)
The source made the active and inactive calls. The rule behind the calls is not given here.

Experiments:
[1] = tested on: HCT-116; assay: Antiproliferative activity against Homo sapiens (human) HCT116 cells assessed as growth inhibition after 48 hr by MTT assay; conditions: HCT-116, 48 h
[2] = tested on: MCF7; assay: Antiproliferative activity against Homo sapiens (human) MCF7 cells assessed as growth inhibition after 48 hr by MTT assay; conditions: MCF7, 48 h
[3] = tested on: HepG2; assay: Antiproliferative activity against Homo sapiens (human) HepG2 cells assessed as growth inhibition after 48 hr by MTT assay; conditions: HepG2, 48 h
[4] = tested on: HCT-116; assay: Induction of apoptosis in Homo sapiens (human) HCT116 cells assessed as early apoptotic cells at 8 uM after 24 hr by Annexin V-FITC/PI staining based flow cytometry (reference value: 3.73%); format: functional
[5] = tested on: HCT-116; assay: Induction of apoptosis in Homo sapiens (human) HCT116 cells assessed as PARP cleavage at 0.5 to 8 uM by Western blot analysis; format: functional, cell-based
[6] = tested on: HCT-116; assay: Induction of apoptosis in Homo sapiens (human) HCT116 cells assessed as necrotic cells at 0.5 uM after 24 hr by Annexin V-FITC/PI staining based flow cytometry (reference value: 0.60%); format: functional
[7] = tested on: HCT-116; assay: Induction of apoptosis in Homo sapiens (human) HCT116 cells assessed as early apoptotic cells at 2 uM after 24 hr by Annexin V-FITC/PI staining based flow cytometry (reference value: 3.73%); format: functional
[8] = tested on: HCT-116; assay: Induction of apoptosis in Homo sapiens (human) HCT116 cells assessed as increase in cleaved caspase-3 level at 0.5 to 8 uM by Western blot analysis; format: functional, cell-based
[9] = tested on: HCT-116; assay: Induction of apoptosis in Homo sapiens (human) HCT116 cells assessed as late apoptotic cells at 8 uM after 24 hr by Annexin V-FITC/PI staining based flow cytometry (reference value: 2.87%); format: functional
[10] = tested on: HCT-116; assay: Induction of apoptosis in Homo sapiens (human) HCT116 cells assessed as viable cells at 0.5 uM after 24 hr by Annexin V-FITC/PI staining based flow cytometry (reference value: 92.80%); format: functional; conditions: HCT-116, 24 h, read-out: Activity
[11] = tested on: HCT-116; assay: Induction of apoptosis in Homo sapiens (human) HCT116 cells assessed as necrotic cells at 8 uM after 24 hr by Annexin V-FITC/PI staining based flow cytometry (reference value: 0.60%); format: functional
[12] = tested on: HCT-116; assay: Induction of apoptosis in Homo sapiens (human) HCT116 cells assessed as viable cells at 8 uM after 24 hr by Annexin V-FITC/PI staining based flow cytometry (reference value: 92.80%); format: functional; conditions: HCT-116, 24 h, read-out: Activity
[13] = tested on: HCT-116; assay: Induction of apoptosis in Homo sapiens (human) HCT116 cells assessed as early apoptotic cells at 0.5 uM after 24 hr by Annexin V-FITC/PI staining based flow cytometry (reference value: 3.73%); format: functional
[14] = tested on: HCT-116; assay: Induction of apoptosis in Homo sapiens (human) HCT116 cells assessed as late apoptotic cells at 0.5 uM after 24 hr by Annexin V-FITC/PI staining based flow cytometry (reference value: 2.87%); format: functional
[15] = tested on: HCT-116; assay: Induction of apoptosis in Homo sapiens (human) HCT116 cells assessed as necrotic cells at 2 uM after 24 hr by Annexin V-FITC/PI staining based flow cytometry (reference value: 0.60%); format: functional
[16] = tested on: HCT-116; assay: Induction of apoptosis in Homo sapiens (human) HCT116 cells assessed as viable cells at 2 uM after 24 hr by Annexin V-FITC/PI staining based flow cytometry (reference value: 92.80%); format: functional; conditions: HCT-116, 24 h, read-out: Activity
[17] = tested on: HCT-116; assay: Induction of apoptosis in Homo sapiens (human) HCT116 cells assessed as late apoptotic cells at 2 uM after 24 hr by Annexin V-FITC/PI staining based flow cytometry (reference value: 2.87%); format: functional

Compound	IC50 [1] [µM]	IC50 [2] [µM]	IC50 [3] [µM]	further results
COc1ccc(/C=N/NC(=O)CSc2nnc(-c3ccncc3)n2-c2ccccc2)cc1	19.2	23.7	27.1	–
O=[N+]([O-])c1ccc(CSc2nnc(-c3ccncc3)n2-c2ccccc2)cc1	23.8	22.8	> 50	–
O=C(CSc1nnc(-c2ccncc2)n1-c1ccccc1)N/N=C/c1ccc(O)cc1	> 50	> 50	> 50	–
O=[N+]([O-])c1cccc(CSc2nnc(-c3ccncc3)n2-c2ccccc2)c1	19.8	18.3	22	–
O=[N+]([O-])c1ccccc1CSc1nnc(-c2ccncc2)n1-c1ccccc1	> 50	> 50	> 50	–
Fc1cccc(F)c1CSc1nnc(-c2ccncc2)n1-c1ccccc1	22.1	> 50	> 50	–
O=C(CSc1nnc(-c2ccncc2)n1-c1ccccc1)N/N=C/c1ccccc1	14.7	23.6	18.6	–
O=C(CSc1nnc(-c2ccncc2)n1-c1ccccc1)N/N=C/c1cccc(F)c1	> 50	> 50	24.4	–
Brc1ccccc1CSc1nnc(-c2ccncc2)n1-c1ccccc1	20.2	16.1	17.1	–
Clc1ccccc1CSc1nnc(-c2ccncc2)n1-c1ccccc1	13.8	18.1	15.7	–
c1ccc(CSc2nnc(-c3ccncc3)n2-c2ccccc2)cc1	16.9	22.4	12.9	–
O=C(CSc1nnc(-c2ccncc2)n1-c1ccccc1)N/N=C/c1ccccc1F	18	22.4	15.2	–
O=C(CSc1nnc(-c2ccncc2)n1-c1ccccc1)N/N=C/c1ccc(O)c(O)c1	14.7	19.7	16.9	–

Compounds with a lower IC50 [1], results first:

IC50 [1] [µM]	IC50 [2] [µM]	IC50 [3] [µM]	Compound	further results
12.8	21.1	15.6	Fc1ccc(CSc2nnc(-c3ccncc3)n2-c2ccccc2)cc1	–
12	> 50	> 50	Fc1ccccc1CSc1nnc(-c2ccncc2)n1-c1ccccc1	–
11.4	14.1	10.2	Fc1ccc(CSc2nnc(-c3ccncc3)n2-c2ccccc2)c(F)c1	–
11.1	12.6	12.9	Brc1ccc(CSc2nnc(-c3ccncc3)n2-c2ccccc2)cc1	–
10.7	13.3	16.9	Clc1ccc(CSc2nnc(-c3ccncc3)n2-c2ccccc2)cc1	–
10.2	15.3	15.9	O=C(CSc1nnc(-c2ccncc2)n1-c1ccccc1)N/N=C/c1ccc([N+](=O)[O-])cc1	–
9.82	10.5	11.2	Clc1cccc(CSc2nnc(-c3ccncc3)n2-c2ccccc2)c1	–
8.17	10	7.04	Brc1cccc(CSc2nnc(-c3ccncc3)n2-c2ccccc2)c1	Activity [4]: 12.3%; Activity [5]: Active; Activity [6]: 0.28%; Activity [7]: 11.39%; Activity [8]: Active; Activity [9]: 31.69%; viability at 0.5 µM [10]: 88.2%; Activity [11]: 5.59%; viability at 8 µM [12]: 50.4%; Activity [13]: 8.24%; Activity [14]: 3.24%; Activity [15]: 1.08%; viability at 2 µM [16]: 78.3%; Activity [17]: 9.25%
7.06	10	11.3	O=C(CSc1nnc(-c2ccncc2)n1-c1ccccc1)N/N=C/c1ccccc1O	–
7.04	12.3	9.33	O=C(CSc1nnc(-c2ccncc2)n1-c1ccccc1)N/N=C/c1ccc(F)cc1	–
6.15	11.2	8.28	O=C(CSc1nnc(-c2ccncc2)n1-c1ccccc1)N/N=C/C=C/c1ccccc1	–
5.74	9.93	11	O=C(CSc1nnc(-c2ccncc2)n1-c1ccccc1)N/N=C/c1ccc(Cl)cc1	–
4.5	7.04	5.99	O=C(CSc1nnc(-c2ccncc2)n1-c1ccccc1)N/N=C/c1ccc(Br)cc1	–
4.5	8.44	7.59	O=C(CSc1nnc(-c2ccncc2)n1-c1ccccc1)N/N=C/c1cc(Br)cc(Br)c1O	–
1.99	6.46	4.39	O=C(CSc1nnc(-c2ccncc2)n1-c1ccccc1)N/N=C/c1cc(Br)ccc1O	Activity [4]: 27.35%; Activity [5]: Active; Activity [6]: 0.72%; Activity [7]: 18.85%; Activity [8]: Active; Activity [9]: 38.01%; viability at 0.5 µM [10]: 90%; Activity [11]: 3.04%; viability at 8 µM [12]: 31.6%; Activity [13]: 5.99%; Activity [14]: 3.27%; Activity [15]: 2.44%; viability at 2 µM [16]: 86.2%; Activity [17]: 12.47%
